The values below come from Sander's compilation of Henry's law constants (doi:10.1021/ac0604742).

A short description of this data set: Henry solubility constant Hcp at 298.15 K (mol/(m3 Pa)). The conditions noted are these: reference: Fang et al. (2006).
On to `Clc1cc(-c2ccc(Cl)c(Cl)c2Cl)cc(Cl)c1Cl` [2,3,3',4,4',5'-hexachlorobiphenyl], for which the “Henry solubility constant Hcp” value stood at 0.06.
Regarding `Clc1ccc(-c2cc(Cl)c(Cl)c(Cl)c2)c(Cl)c1` [2,3',4,4',5'-pentachlorobiphenyl], the “Henry solubility constant Hcp” value was 0.046.
For `Clc1ccc(-c2ccc(Cl)c(Cl)c2Cl)cc1Cl` [2,3,3',4,4'-pentachlorobiphenyl], the “Henry solubility constant Hcp” value turned out to be 0.18.
As for `Clc1ccc(-c2ccc(Cl)c(Cl)c2)cc1Cl` [3,3',4,4'-tetrachlorobiphenyl], the “Henry solubility constant Hcp” value came out at 0.091.
For the compound `Clc1cc(-c2cc(Cl)c(Cl)c(Cl)c2)cc(Cl)c1Cl` [3,3',4,4',5,5'-hexachlorobiphenyl], the “Henry solubility constant Hcp” value is 0.081.
On to `Clc1ccc(-c2cc(Cl)c(Cl)c(Cl)c2Cl)cc1Cl` [2,3,3',4,4',5-hexachlorobiphenyl], for which the “Henry solubility constant Hcp” value worked out at 0.068.
Under `Clc1ccc(-c2cc(Cl)c(Cl)c(Cl)c2)cc1` [3,4,4',5-tetrachlorobiphenyl] stands 0.088.
Under `Clc1cc(Cl)c(-c2cc(Cl)c(Cl)c(Cl)c2)cc1Cl` [2,3',4,4',5,5'-hexachlorobiphenyl] stands 0.078; under `Clc1ccc(-c2cc(Cl)c(Cl)cc2Cl)cc1Cl` [2,3',4,4',5-pentachlorobiphenyl], 0.057; under `Clc1cc(-c2cc(Cl)c(Cl)c(Cl)c2Cl)cc(Cl)c1Cl` [2,3,3',4,4',5,5'-heptachlorobiphenyl], 0.084.
As for `Clc1ccc(-c2cc(Cl)c(Cl)c(Cl)c2)cc1Cl` [3,3',4,4',5-pentachlorobiphenyl], the “Henry solubility constant Hcp” value was found to be 0.1.
